Assay results published in ChEMBL document CHEMBL5291721, “A preclinical secondary pharmacology resource illuminates target-adverse drug reaction associations of marketed drugs” (Nat Commun, 2023).

What was measured:
[1] = target: T1, 5-hydroxytryptamine receptor 1A (Homo sapiens, UniProt P08908); format: functional, cell-based
T1 sequence (P08908 whole entry): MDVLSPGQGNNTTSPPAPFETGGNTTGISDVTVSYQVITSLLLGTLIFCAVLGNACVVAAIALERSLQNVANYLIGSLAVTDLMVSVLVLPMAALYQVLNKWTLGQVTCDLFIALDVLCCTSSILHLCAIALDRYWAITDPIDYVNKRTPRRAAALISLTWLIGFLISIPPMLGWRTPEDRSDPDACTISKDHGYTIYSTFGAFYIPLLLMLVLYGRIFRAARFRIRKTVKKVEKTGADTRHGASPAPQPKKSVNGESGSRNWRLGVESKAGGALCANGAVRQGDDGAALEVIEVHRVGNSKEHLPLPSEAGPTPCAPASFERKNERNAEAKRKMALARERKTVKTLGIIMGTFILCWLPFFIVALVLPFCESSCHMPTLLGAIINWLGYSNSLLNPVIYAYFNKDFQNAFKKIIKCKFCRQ

[2] = target: Muscarinic acetylcholine receptor M3 (Homo sapiens, UniProt P20309)
Sequence of Muscarinic acetylcholine receptor M3 (P20309 whole entry): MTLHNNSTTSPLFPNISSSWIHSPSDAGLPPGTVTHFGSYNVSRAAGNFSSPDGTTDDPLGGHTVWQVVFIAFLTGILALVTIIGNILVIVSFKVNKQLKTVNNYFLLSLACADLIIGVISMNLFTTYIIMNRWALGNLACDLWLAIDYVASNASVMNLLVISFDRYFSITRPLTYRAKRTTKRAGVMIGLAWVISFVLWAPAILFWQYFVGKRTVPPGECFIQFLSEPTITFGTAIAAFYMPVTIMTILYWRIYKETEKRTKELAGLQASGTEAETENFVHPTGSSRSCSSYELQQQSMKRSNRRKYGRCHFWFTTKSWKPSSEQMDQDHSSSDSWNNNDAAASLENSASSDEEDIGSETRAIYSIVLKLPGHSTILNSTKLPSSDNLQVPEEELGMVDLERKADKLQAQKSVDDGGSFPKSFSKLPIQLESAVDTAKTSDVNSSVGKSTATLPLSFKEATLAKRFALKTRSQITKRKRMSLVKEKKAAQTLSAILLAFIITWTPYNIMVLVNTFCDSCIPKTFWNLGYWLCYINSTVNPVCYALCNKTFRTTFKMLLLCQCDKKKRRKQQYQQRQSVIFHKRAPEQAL

Adenosine receptor A1 = target: T2, Adenosine receptor A1 (Homo sapiens, UniProt P30542)
T2 sequence (P30542 whole entry): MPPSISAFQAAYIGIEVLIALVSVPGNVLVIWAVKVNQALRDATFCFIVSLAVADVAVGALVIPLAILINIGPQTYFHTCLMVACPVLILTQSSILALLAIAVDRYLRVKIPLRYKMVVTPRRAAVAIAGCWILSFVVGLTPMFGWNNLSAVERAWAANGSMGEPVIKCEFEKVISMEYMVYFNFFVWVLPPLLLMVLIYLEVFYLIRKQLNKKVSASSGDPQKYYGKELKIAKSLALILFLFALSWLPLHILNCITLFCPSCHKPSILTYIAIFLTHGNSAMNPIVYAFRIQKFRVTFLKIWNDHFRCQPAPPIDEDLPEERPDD

Melanocortin receptor 3 = Melanocortin receptor 3 (Homo sapiens, UniProt P41968)
Sequence of Melanocortin receptor 3 (P41968 whole entry): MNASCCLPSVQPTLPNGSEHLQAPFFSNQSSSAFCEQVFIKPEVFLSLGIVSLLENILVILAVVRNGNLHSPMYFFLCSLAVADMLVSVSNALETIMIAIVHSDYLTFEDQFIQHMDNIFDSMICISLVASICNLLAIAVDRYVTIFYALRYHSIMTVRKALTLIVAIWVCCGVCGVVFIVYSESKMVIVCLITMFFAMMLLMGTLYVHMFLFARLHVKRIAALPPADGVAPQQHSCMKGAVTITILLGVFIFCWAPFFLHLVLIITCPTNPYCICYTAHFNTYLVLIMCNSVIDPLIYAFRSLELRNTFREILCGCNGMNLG

Adenosine receptor A2a = Adenosine receptor A2a (Homo sapiens, UniProt P29274)
Sequence of Adenosine receptor A2a (P29274 whole entry): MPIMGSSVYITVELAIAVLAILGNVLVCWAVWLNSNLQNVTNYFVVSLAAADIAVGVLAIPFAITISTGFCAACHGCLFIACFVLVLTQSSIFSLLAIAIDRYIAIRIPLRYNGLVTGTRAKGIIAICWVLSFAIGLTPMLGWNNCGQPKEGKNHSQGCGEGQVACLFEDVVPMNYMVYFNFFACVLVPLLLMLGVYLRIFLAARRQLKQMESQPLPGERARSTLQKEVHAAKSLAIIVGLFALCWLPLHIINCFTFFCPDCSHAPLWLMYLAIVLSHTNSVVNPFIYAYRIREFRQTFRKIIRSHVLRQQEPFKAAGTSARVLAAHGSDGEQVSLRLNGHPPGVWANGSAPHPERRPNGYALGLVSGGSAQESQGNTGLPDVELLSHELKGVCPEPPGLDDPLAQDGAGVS

[3] = target: 3',5'-cyclic-AMP phosphodiesterase 4D (Homo sapiens, UniProt Q08499); format: functional
Sequence of 3',5'-cyclic-AMP phosphodiesterase 4D (Q08499 whole entry): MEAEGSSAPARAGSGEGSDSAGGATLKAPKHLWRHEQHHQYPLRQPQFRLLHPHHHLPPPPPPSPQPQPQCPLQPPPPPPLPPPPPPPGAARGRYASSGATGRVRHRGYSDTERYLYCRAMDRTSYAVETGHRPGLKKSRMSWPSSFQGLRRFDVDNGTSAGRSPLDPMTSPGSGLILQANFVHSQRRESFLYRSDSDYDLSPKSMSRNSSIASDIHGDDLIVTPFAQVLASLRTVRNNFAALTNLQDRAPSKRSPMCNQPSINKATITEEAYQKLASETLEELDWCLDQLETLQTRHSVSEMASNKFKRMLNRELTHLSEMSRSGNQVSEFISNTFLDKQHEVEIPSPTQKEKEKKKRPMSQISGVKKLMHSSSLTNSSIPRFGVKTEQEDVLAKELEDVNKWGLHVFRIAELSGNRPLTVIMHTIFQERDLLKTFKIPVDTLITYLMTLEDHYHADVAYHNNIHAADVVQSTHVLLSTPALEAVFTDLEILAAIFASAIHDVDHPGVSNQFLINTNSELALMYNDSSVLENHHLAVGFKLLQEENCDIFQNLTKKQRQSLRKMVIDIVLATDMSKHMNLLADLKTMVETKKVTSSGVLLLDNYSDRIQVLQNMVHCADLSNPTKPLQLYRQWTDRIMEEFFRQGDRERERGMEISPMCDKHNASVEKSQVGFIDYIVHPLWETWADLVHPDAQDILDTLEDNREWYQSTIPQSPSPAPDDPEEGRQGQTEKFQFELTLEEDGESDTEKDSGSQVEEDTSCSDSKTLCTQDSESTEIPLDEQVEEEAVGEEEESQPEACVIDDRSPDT

[4] = target: Beta-1 adrenergic receptor (Homo sapiens, UniProt P08588); format: functional
Sequence of Beta-1 adrenergic receptor (P08588 whole entry): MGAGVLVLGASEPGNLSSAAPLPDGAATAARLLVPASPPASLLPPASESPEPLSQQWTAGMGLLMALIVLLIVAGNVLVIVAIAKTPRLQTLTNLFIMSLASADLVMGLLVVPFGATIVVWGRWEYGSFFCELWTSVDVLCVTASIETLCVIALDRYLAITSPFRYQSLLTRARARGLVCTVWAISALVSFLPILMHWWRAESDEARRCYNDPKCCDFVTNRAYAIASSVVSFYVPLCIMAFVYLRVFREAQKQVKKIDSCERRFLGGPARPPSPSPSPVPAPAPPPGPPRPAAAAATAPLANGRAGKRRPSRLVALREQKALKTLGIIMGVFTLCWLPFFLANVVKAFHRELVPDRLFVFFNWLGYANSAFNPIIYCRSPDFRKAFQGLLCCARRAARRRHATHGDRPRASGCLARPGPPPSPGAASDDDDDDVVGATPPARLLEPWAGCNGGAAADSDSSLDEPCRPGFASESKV

Vasopressin V1a receptor = Vasopressin V1a receptor (Homo sapiens, UniProt P37288)
Sequence of Vasopressin V1a receptor (P37288 whole entry): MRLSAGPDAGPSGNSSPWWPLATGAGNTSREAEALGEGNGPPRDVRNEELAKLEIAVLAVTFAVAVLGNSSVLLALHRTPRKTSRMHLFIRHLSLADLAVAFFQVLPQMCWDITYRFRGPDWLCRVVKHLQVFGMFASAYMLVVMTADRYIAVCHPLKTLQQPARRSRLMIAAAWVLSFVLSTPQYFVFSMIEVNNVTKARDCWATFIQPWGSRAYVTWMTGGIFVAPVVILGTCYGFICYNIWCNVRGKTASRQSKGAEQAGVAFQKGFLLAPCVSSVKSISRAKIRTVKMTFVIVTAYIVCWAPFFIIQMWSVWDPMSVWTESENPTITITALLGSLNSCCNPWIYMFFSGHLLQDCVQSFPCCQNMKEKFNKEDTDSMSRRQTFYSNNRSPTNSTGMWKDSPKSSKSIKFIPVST

[5] = target: T3, Muscarinic acetylcholine receptor M1 (Homo sapiens, UniProt P11229); format: functional
T3 sequence (P11229 whole entry): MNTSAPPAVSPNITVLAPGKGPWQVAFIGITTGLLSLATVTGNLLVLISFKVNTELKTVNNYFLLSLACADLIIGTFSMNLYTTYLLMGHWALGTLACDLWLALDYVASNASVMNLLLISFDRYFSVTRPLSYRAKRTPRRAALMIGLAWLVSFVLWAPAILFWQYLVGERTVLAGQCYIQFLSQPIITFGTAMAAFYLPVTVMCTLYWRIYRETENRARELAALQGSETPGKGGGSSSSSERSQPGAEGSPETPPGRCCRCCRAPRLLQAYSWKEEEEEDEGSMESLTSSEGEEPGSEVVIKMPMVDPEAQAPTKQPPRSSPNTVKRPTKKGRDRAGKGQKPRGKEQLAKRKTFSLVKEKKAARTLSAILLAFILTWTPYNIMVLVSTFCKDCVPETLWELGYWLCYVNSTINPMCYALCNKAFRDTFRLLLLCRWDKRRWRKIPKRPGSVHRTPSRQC

[6] = target: T4, Alpha-1A adrenergic receptor (Homo sapiens, UniProt P35348); format: functional, cell-based
T4 sequence (P35348 whole entry): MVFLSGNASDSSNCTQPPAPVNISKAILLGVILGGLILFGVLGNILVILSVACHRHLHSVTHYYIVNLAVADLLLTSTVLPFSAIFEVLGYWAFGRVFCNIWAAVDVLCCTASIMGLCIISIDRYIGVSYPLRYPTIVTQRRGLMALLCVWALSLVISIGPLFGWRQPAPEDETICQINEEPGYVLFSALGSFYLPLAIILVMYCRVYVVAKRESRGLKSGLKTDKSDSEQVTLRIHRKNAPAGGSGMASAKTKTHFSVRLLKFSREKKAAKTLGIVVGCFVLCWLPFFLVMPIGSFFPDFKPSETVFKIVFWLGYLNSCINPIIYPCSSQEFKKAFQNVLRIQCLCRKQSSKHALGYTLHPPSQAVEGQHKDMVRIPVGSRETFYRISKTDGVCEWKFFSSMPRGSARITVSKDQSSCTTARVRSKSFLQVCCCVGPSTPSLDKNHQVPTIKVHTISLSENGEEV

D(3) dopamine receptor = D(3) dopamine receptor (Homo sapiens, UniProt P35462)
Cannabinoid receptor 1 = Cannabinoid receptor 1 (Homo sapiens, UniProt P21554); format: functional, cell-based
Sequence of Cannabinoid receptor 1 (P21554 whole entry): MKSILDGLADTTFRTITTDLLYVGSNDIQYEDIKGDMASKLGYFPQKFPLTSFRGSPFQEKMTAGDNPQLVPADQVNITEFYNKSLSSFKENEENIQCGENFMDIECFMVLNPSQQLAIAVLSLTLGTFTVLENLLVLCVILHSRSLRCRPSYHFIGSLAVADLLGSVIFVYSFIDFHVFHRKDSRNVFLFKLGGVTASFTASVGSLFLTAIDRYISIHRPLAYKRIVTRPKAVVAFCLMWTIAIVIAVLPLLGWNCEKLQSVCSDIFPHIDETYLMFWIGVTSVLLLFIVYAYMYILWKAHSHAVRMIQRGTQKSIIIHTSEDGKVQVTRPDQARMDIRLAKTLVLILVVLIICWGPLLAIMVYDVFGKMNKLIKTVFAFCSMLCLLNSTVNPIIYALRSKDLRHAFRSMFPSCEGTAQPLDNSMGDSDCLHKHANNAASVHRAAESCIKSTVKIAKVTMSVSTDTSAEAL

Thromboxane A2 receptor = target: T5, Thromboxane A2 receptor (Homo sapiens, UniProt P21731)
T5 sequence (P21731 whole entry): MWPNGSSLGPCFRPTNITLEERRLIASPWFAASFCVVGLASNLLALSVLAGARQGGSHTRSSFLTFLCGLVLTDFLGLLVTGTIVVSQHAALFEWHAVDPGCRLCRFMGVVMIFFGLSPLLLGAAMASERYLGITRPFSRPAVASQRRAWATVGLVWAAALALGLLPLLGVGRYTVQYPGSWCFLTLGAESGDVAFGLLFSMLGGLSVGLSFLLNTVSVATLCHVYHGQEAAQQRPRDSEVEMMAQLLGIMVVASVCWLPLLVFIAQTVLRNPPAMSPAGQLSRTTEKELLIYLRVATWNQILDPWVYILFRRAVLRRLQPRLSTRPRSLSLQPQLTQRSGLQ

Histamine H1 receptor = Histamine H1 receptor (Homo sapiens, UniProt P35367)
Sequence of Histamine H1 receptor (P35367 whole entry): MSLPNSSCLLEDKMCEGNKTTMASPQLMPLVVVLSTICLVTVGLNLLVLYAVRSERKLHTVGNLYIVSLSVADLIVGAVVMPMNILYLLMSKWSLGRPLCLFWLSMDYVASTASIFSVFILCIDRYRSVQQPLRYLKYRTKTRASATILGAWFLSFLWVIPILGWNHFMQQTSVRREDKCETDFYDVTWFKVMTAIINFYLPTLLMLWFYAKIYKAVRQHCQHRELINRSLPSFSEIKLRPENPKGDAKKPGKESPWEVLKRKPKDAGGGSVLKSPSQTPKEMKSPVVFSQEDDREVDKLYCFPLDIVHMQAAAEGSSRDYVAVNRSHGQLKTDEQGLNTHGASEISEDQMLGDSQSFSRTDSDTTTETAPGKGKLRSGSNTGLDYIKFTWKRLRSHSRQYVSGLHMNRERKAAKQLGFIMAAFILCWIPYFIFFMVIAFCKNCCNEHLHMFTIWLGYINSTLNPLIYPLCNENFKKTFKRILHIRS

[7] = target: Gamma-aminobutyric acid receptor subunit alpha-1 (Rattus norvegicus, UniProt P62813); format: functional
Sequence of Gamma-aminobutyric acid receptor subunit alpha-1 (P62813 whole entry): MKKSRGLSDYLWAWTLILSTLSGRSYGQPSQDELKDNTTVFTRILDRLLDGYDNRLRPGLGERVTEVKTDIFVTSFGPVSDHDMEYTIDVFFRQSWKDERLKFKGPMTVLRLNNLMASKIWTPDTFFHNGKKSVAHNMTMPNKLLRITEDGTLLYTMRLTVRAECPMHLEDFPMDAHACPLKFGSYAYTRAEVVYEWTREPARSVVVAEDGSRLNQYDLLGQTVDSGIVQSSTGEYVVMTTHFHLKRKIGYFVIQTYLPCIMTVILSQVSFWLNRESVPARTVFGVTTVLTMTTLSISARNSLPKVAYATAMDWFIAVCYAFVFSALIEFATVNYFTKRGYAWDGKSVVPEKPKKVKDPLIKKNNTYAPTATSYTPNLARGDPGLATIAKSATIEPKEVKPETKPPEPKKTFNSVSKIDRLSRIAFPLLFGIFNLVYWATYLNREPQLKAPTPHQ

[8] = target: 5-hydroxytryptamine receptor 2B (Homo sapiens, UniProt P41595); format: functional, cell-based
Sequence of 5-hydroxytryptamine receptor 2B (P41595 whole entry): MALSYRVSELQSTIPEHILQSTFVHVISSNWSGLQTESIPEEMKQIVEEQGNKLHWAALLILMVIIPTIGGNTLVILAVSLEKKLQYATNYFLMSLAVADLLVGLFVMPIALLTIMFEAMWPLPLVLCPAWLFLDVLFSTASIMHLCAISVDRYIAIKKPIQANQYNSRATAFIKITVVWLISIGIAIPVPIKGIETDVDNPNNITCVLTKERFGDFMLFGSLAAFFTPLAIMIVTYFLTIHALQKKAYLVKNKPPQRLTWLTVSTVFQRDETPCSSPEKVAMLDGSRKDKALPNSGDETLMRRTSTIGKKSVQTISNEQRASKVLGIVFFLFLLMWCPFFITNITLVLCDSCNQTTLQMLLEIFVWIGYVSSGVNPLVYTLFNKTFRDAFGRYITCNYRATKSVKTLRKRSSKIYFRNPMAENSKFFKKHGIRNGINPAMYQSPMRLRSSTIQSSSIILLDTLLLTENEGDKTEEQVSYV
Also: assay procedure not described here.

| Compound | AC50 [1] [µM] | AC50 [2] [µM] | AC50 (Adenosine receptor A1) [µM] | AC50 (Melanocortin receptor 3) [µM] | AC50 (Adenosine receptor A2a) [µM] | AC50 [3] [µM] | AC50 [4] [µM] | AC50 (Vasopressin V1a receptor) [µM] | AC50 [5] [µM] | AC50 [6] [µM] | AC50 (D(3) dopamine receptor) [µM] | AC50 (Cannabinoid receptor 1) [µM] | AC50 (Thromboxane A2 receptor) [µM] | AC50 (Histamine H1 receptor) [µM] | AC50 [7] [µM] | AC50 [8] [µM] |
| --- | --- | --- | --- | --- | --- | --- | --- | --- | --- | --- | --- | --- | --- | --- | --- | --- |
| C=CCN1C[C@H](C(=O)N(CCCN(C)C)C(=O)NCC)C[C@@H]2c3cccc4[nH]cc(c34)C[C@H]21 [CABERGOLINE] | 0.162 | > 30 | > 10 | > 10 | > 10 | > 30 | > 10 | > 10 | > 10 | 0.599 | 0.0076 | > 30 | > 10 | 6.8 | > 10 | – |
| CN(C)CCC=C1c2ccccc2C=Cc2ccccc21 [CYCLOBENZAPRINE] | > 10 | 0.35 | > 30 | > 30 | > 30 | > 30 | > 10 | > 30 | 0.18 | > 30 | 1.1 | > 30 | > 30 | 0.021 | > 10 | 1.25 |
| CCOc1ccccc1OCC1CNCCO1 (stereo not drawn) [VILOXAZINE] | > 10 | > 10 | > 30 | > 30 | > 30 | > 30 | > 10 | > 10 | > 10 | > 30 | > 10 | > 30 | > 30 | > 10 | > 10 | > 10 |
| COc1ccc(C(=O)Nc2ccccc2CCC2CCCCN2C)cc1 (stereo not drawn) [ENCAINIDE] | > 10 | > 10 | > 30 | > 30 | > 30 | > 30 | > 10 | > 10 | > 10 | > 30 | > 10 | > 30 | > 30 | > 10 | > 10 | > 10 |
| CC[C@@H](C(N)=O)N1CCCC1=O | > 30 | > 30 | > 30 | > 30 | > 30 | > 30 | > 30 | > 30 | > 30 | > 30 | > 30 | > 30 | – | > 10 | > 30 | > 30 |
